Laboratory results as given in patent publication US20100311714A1, “1H-IMIDAZO[4,5-c]QUINOLINONE COMPOUNDS” (priority 2009, published 2010).
Where two headings read alike, the source gives them in different places.

How the values were obtained:
[1] = test system: PKB Ser473 phosphorylation in Rat1-myr-HA-p110 beta cells; assay: Reverse protein array, PKB Ser473 phosphorylation in Rat1-myr-HA-p110 beta cells; type: cell-based; details: Rattus norvegicus, 0.5 h, 30 minutes compound incubation, read-out: p-PKB/IC50_beta
[2] = test system: PKB Ser473 phosphorylation in Rat1-myr-HA-p110 alpha cells; assay: Reverse protein array, PKB Ser473 phosphorylation in Rat1-myr-HA-p110 alpha cells; type: cell-based; details: Rattus norvegicus, 0.5 h, 30 minutes compound incubation, read-out: p-PKB/IC50_alpha
mTOR = molecular target: T1, mTOR (Homo sapiens, UniProt P42345); assay: Biochemical assay for m-TOR by TR-FRET
T1 construct: purchased Invitrogen Corporation (Carlsbad/Calif., USA) PV4753
In short: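 mTOR (0.5 nM) phosphorylates GFP-4EBP1 (400 nM) with 8 μM ATP at rt in 50 mM HEPES pH 7.5, 10 mM MnCl2, 50 mM NaCl, 1 mM EGTA, 1 mM DTT; compounds 0.003–10 μM final. EDTA stop with Tb-anti-p4EBP1[pT46] antibody (0.5 nM); TR-FRET read after 15 min against no-enzyme and vehicle controls.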

T1 sequence (P42345 1360-2549 limits assumed): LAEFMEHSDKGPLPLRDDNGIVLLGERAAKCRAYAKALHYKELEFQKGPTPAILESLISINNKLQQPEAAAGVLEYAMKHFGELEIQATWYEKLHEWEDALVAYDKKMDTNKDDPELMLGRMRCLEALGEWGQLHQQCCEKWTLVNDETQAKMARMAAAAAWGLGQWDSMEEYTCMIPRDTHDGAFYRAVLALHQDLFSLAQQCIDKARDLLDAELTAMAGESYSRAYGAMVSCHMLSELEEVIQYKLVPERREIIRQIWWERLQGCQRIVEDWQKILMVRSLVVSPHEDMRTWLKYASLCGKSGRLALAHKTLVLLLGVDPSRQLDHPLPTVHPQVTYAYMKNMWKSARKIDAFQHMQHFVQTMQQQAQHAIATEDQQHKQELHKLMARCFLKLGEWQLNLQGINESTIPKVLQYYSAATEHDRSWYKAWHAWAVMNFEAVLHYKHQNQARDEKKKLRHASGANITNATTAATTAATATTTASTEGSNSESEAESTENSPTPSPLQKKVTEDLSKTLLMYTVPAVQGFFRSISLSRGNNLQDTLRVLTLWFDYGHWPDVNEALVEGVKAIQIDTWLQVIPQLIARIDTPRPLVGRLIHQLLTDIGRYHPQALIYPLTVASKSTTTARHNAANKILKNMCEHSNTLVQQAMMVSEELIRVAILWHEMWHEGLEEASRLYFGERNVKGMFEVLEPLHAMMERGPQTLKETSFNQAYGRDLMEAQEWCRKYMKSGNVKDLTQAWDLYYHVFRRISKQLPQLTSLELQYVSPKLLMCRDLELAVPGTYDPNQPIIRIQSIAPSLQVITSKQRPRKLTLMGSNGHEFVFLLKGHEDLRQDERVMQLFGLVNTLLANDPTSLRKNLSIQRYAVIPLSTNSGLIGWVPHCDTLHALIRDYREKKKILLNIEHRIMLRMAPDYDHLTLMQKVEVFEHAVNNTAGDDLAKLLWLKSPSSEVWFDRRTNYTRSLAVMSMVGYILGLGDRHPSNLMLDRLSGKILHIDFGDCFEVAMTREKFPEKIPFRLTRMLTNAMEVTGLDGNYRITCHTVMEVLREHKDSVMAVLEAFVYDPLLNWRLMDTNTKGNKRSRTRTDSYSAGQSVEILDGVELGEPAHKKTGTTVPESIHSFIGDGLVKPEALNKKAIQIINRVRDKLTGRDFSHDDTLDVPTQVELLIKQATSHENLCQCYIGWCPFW

Row | SMILES | IC50 [1] | IC50 [2] | IC50 (mTOR; read-out: EPK_mTOR/IC50) | IC50 (mTOR; read-out: mTOR/IC50)
1 | CCNc1cc(-c2ccc3ncc4c(c3c2)n(-c2ccc(OC)nc2C)c(=O)n4C)cnc1C [Example 11.7, 8-(5-Ethylamino-6-methyl-pyridin-3-yl)-1-(6-methoxy-2-methyl-pyridin-3-yl)-3-methyl-1,3-dihydro-imidazo[4,5-c]quinolin-2-one] | 0.0075 µM | 0.0049 µM | 0.003 µM | –
2 | Cc1ccc(-n2c(=O)n(C)c3cnc4ccc(-c5cnc(N(C)C)nc5)cc4c32)c(C)n1 [Example 14.3, 8-(2-Dimethylamino-pyrimidin-5-yl)-1-(2,6-dimethyl-pyridin-3-yl)-3-methyl-1,3-dihydro-imidazo[4,5-c]quinolin-2-one] | 0.0403 µM | 0.039 µM | 0.048 µM | –
3 | COCC(=O)Nc1ccc(-n2c(=O)n(C)c3cnc4ccc(-c5cncc(N)c5)cc4c32)c(C)n1 [Example 20.1, N-{5-[8-(5-Amino-pyridin-3-yl)-3-methyl-2-oxo-2,3-dihydro-imidazo[4,5-c]quinolin-1-yl]-6-methyl-pyridin-2-yl}-2-methoxy-acetamide] | 0.17 µM | 0.287 µM | 0.007 µM | –
4 | CCOc1ccc(-c2ccc3ncc4c(c3c2)n(-c2cccnc2OC)c(=O)n4C)cn1 [Example 1.5, 8-(6-Ethoxy-pyridin-3-yl)-1-(2-methoxy-pyridin-3-yl)-3-methyl-1,3-dihydro-imidazo[4,5-c]quinolin-2-one] | 0.0388 µM | 0.00935 µM | – | 0.107 µM
5 | CNc1ncc(-c2ccc3ncc4c(c3c2)n(-c2ccc(C)nc2C)c(=O)n4C)cn1 [Example 14.4, 1-(2,6-Dimethyl-pyridin-3-yl)-3-methyl-8-(2-methylamino-pyrimidin-5-yl)-1,3-dihydro-imidazo[4,5-c]quinolin-2-one] | 0.0242 µM | 0.0162 µM | 0.014 µM | –
6 | CNc1ncc(-c2ccc3ncc4c(c3c2)n(-c2ccc(F)nc2C)c(=O)n4C)cc1F [Example 7.12, 8-(5-Fluoro-6-methylamino-pyridin-3-yl)-1-(6-fluoro-2-methyl-pyridin-3-yl)-3-methyl-1,3-dihydro-imidazo[4,5-c]quinolin-2-one] | 0.0135 µM | 0.0064 µM | 0.066 µM | –
7 | COCCOc1ccc(-n2c(=O)n(C)c3cnc4ccc(-c5cnc(N)c(C(F)(F)F)c5)cc4c32)c(C)n1 [Example 13.2, 8-(6-Amino-5-trifluoromethyl-pyridin-3-yl)-1-[6-(2-methoxy-ethoxy)-2-methyl-pyridin-3-yl]-3-methyl-1,3-dihydro-imidazo[4,5-c]quinolin-2-one] | 0.0053 µM | < 0.00457 µM | 0.018 µM | –
8 | CNc1ncc(-c2ccc3ncc4c(c3c2)n(-c2ccc(N(C)CCOC)nc2C)c(=O)n4C)cn1 [Example 15.2, 1-{6-[(2-Methoxy-ethyl)-methyl-amino]-2-methyl-pyridin-3-yl}-3-methyl-8-(2-methylamino-pyrimidin-5-yl)-1,3-dihydro-imidazo[4,5-c]quinolin-2-one] | 0.0214 µM | 0.005 µM | 0.007 µM | –
9 | CNc1ncc(-c2ccc3ncc4c(c3c2)n(-c2ccc(OCCOC)nc2C)c(=O)n4C)cn1 [Example 13.5, 1-[6-(2-Methoxy-ethoxy)-2-methyl-pyridin-3-yl]-3-methyl-8-(2-methylamino-pyrimidin-5-yl)-1,3-dihydro-imidazo[4,5-c]quinolin-2-one] | 0.0116 µM | 0.0069 µM | 0.039 µM | –
10 | CNc1ncc(-c2ccc3ncc4c(c3c2)n(-c2cnc(F)cc2C)c(=O)n4C)cn1 [Example 16.3, 1-(6-Fluoro-4-methyl-pyridin-3-yl)-3-methyl-8-(2-methylamino-pyrimidin-5-yl)-1,3-dihydro-imidazo[4,5-c]quinolin-2-one] | 0.302 µM | 0.0641 µM | 0.151 µM | –
11 | CNc1ncc(-c2ccc3ncc4c(c3c2)n(-c2ccc(F)nc2C)c(=O)n4C)cc1C(F)(F)F [Example 7.13, 1-(6-Fluoro-2-methyl-pyridin-3-yl)-3-methyl-8-(6-methylamino-5-trifluoromethyl-pyridin-3-yl)-1,3-dihydro-imidazo[4,5-c]quinolin-2-one] | 0.0076 µM | < 0.00457 µM | 0.067 µM | –
12 | COc1ccc(-c2ccc3ncc4c(c3c2)n(-c2cccnc2OC)c(=O)n4C)cn1 [Example 1.1, 1-(2-Methoxy-pyridin-3-yl)-8-(6-methoxy-pyridin-3-yl)-3-methyl-1,3-dihydro-imidazo[4,5-c]quinolin-2-one] | 0.065 µM | 0.0429 µM | – | 0.036 µM
13 | Cc1nc(N2CCC(O)C2)ccc1-n1c(=O)n(C)c2cnc3ccc(-c4cncc(OC(C)C)c4)cc3c21 (stereo not drawn) [Example 27.1, 1-[6-(3-Hydroxy-pyrrolidin-1-yl)-2-methyl-pyridin-3-yl]-8-(5-isopropoxy-pyridin-3-yl)-3-methyl-1,3-dihydro-imidazo[4,5-c]quinolin-2-one] | 0.0857 µM | 0.0411 µM | 0.025 µM | –
14 | COc1ccc(-n2c(=O)n(C)c3cnc4ccc(-c5cnc(CO)c(OC)c5)cc4c32)c(C)n1 [Example 11.8, 8-(6-Hydroxymethyl-5-methoxy-pyridin-3-yl)-1-(6-methoxy-2-methyl-pyridin-3-yl)-3-methyl-1,3-dihydro-imidazo[4,5-c]quinolin-2-one] | 0.0311 µM | 0.0078 µM | 0.046 µM | –
15 | Cc1ccc(-n2c(=O)n(C)c3cnc4ccc(-c5cnc6c(ccn6C)c5)cc4c32)c(C)n1 [Example 14.7, 1-(2,6-Dimethyl-pyridin-3-yl)-3-methyl-8-(1-methyl-1H-pyrrolo[2,3-b]pyridin-5-yl)-1,3-dihydro-imidazo[4,5-c]quinolin-2-one] | 0.0208 µM | 0.0115 µM | 0.013 µM | –
16 | CNc1cc(-c2ccc3ncc4c(c3c2)n(-c2ccc(N(C)C)nc2C)c(=O)n4C)cnc1C [Example 19.2, 1-(6-Dimethylamino-2-methyl-pyridin-3-yl)-3-methyl-8-(6-methyl-5-methylamino-pyridin-3-yl)-1,3-dihydro-imidazo[4,5-c]quinolin-2-one] | < 0.00457 µM | < 0.00457 µM | 0.009 µM | –
17 | CNc1cc(-c2ccc3ncc4c(c3c2)n(-c2ccc(C(F)(F)F)nc2C)c(=O)n4C)cnc1CO [Example 33.2, 8-(6-Hydroxymethyl-5-methylamino-pyridin-3-yl)-3-methyl-1-(2-methyl-6-trifluoromethyl-pyridin-3-yl)-1,3-dihydro-imidazo[4,5-c]quinolin-2-one] | < 0.00447 µM | 0.0052 µM | 0.003 µM | –
18 | Cc1cc(F)ncc1-n1c(=O)n(C)c2cnc3ccc(-c4cnc(N)c(C(F)(F)F)c4)cc3c21 [Example 16.1, 8-(6-Amino-5-trifluoromethyl-pyridin-3-yl)-1-(6-fluoro-4-methyl-pyridin-3-yl)-3-methyl-1,3-dihydro-imidazo[4,5-c]quinolin-2-one] | 0.0656 µM | 0.0133 µM | 0.11 µM | –
19 | COCCOc1ccc(-n2c(=O)n(C)c3cnc4ccc(-c5cncc(N6CCC6)c5)cc4c32)c(C)n1 [Example 22.2, 8-(5-Azetidin-1-yl-pyridin-3-yl)-1-[6-(2-methoxy-ethoxy)-2-methyl-pyridin-3-yl]-3-methyl-1,3-dihydro-imidazo[4,5-c]quinolin-2-one] | 0.0321 µM | 0.0064 µM | 0.021 µM | –
